Tests used:
RON kinase = target: T1, RON kinase (Homo sapiens, UniProt Q04912); test: RON kinase biochemical mobility shift assay (Caliper Desktop Profiler); conditions: RON kinase inhibition
T1 construct: purchased Caliper Life Sciences
Protocol: (§1) The Aurora assays described here are performed on two Caliper Life Sciences systems: the LC3000 and the Desktop Profiler. The RON kinase assays are performed on the Desktop Profiler only. These provide data on enzyme activity via measurement of the relative amounts of phosphorylated or unphosphorylated fluorescently labelled substrate peptide at the end of an enzymatic reaction. These different states of peptide are resolved by applying a potential difference across the sample. The presence of the charged phosphate group on the product (as opposed to the substrate) causes a different peptide mobility between the two peptides. This is visualized by excitation of the fluorescent label on the substrate and product peptides and represented as peaks within the analysis software.
(§2) The Desktop Profiler utilizes the same priniciple as the LC3000 for calculating percentage conversion of a substrate to product. Caliper Life Sciences provides proprietary flash frozen pre-made 384 well plates containing selected kinases. Each column in the 384 well plate contains a particular selected kinase. A second plate, the ‘substrate plate’ contains a mix of fluorescently labeled peptide substrate and ATP. These are arranged in columns so that transfer for substrate plate to enzyme plate provides the correct enzyme with the correct substrate/ATP concentration. Compounds are added to a thawed enzyme plate in the desired format, in single concentrations. Reactions are initiated by transfer of the substrate/ATP mix from the substrate plate. The enzyme plate is incubated for 90 minutes at 25 C. The reaction is stopped by addition of 70 ul of Stop Buffer (100 mM HEPES pH 7.5, 0.015% Brij-35, 10 mM EDTA (Sigma, E7889)).
(§3) Reading of the plate in the Profiler is identical to the LC3000, and the ratio between substrate and product peaks provides the activity of the enzyme in that well. This is best represented by a plate heat map which colors each well by percent inhibition as compared to positive and negative controls (no inhibitors and no ATP respectively).

GST-Aurora A = target: T2, GST-Aurora A (Homo sapiens, UniProt O14965); test: Aurora A kinase biochemical mobility shift assay (Caliper LC3000 / Desktop Profiler); conditions: AK A (Aurora kinase A) inhibition
T2 construct: N-terminal GST fusion with full length Aurora A (1-403 amino acids); purchased Carna Biosciences 05-101
T2 sequence (O14965 1-403): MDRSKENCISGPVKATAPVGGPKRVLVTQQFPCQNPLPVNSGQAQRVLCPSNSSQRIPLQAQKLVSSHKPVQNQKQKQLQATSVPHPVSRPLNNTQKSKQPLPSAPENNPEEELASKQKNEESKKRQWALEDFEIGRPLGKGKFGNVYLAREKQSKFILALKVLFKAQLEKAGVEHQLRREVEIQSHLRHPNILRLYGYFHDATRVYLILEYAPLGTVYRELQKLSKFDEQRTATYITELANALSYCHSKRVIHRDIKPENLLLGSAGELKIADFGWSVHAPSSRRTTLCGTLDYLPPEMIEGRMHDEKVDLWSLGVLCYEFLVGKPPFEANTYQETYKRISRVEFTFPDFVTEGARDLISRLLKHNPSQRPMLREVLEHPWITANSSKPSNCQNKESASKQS
Protocol: as §1
In order to measure inhibitor activity of Aurora A inhibitors in the Caliper Life Sciences LC3000, a TTP Mosquito liquid handling instrument is used to place 0.25 ul of the appropriate concentration of inhibitor in 100% DMSO (for a dose response curve calculation) into each well of a 384-well plate. To this reaction components are added to a final volume of 25 ul: • 0.067 ng/ul GST-Aurora A (Carna Biosciences 05-101. N-terminal GST fusion with full length Aurora A (1-403 amino acids), accession number NP_940835.1). • 15 uM ATP (Fluka, 02055) • 1 mM DTT (Sigma, D0632) • 1 mM MgCl2 (Sigma, M1028) • 1 uM substrate peptide (sequence FITC-LRRASLG-(CONH2), synthesized by Tufts Peptide Synthesis service. • 100 mM HEPES pH 7.5 (Calbiochem, 391338) • 0.015% Brij-35 (Sigma, B4184)
The reaction is incubated for 90 min at 25 C, and then stopped by the addition of 70 ul of Stop buffer (100 mM HEPES pH 7.5, 0.015% Brij-35, 10 mM EDTA (Sigma, E7889)).
The plate is read on a Caliper LC3000 in an Off-Chip mobility shift assay format, using the following parameters for a 12-sipper chip: screening pressure −1.8 psi, upstream voltage −2700, downstream voltage −1000. These conditions cause unphosphorylated substrate and phosphorylated product peptide to resolve as separate peaks allowing direct measurement of percentage of conversion of substrate to product. The percent conversion can be plotted against concentration of inhibitor to produce a sigmoidal dose response curve, from which an IC50 can be calculated using XLFit for Microsoft Excel.
as §2, §3

T1 sequence (Q04912 25-1400): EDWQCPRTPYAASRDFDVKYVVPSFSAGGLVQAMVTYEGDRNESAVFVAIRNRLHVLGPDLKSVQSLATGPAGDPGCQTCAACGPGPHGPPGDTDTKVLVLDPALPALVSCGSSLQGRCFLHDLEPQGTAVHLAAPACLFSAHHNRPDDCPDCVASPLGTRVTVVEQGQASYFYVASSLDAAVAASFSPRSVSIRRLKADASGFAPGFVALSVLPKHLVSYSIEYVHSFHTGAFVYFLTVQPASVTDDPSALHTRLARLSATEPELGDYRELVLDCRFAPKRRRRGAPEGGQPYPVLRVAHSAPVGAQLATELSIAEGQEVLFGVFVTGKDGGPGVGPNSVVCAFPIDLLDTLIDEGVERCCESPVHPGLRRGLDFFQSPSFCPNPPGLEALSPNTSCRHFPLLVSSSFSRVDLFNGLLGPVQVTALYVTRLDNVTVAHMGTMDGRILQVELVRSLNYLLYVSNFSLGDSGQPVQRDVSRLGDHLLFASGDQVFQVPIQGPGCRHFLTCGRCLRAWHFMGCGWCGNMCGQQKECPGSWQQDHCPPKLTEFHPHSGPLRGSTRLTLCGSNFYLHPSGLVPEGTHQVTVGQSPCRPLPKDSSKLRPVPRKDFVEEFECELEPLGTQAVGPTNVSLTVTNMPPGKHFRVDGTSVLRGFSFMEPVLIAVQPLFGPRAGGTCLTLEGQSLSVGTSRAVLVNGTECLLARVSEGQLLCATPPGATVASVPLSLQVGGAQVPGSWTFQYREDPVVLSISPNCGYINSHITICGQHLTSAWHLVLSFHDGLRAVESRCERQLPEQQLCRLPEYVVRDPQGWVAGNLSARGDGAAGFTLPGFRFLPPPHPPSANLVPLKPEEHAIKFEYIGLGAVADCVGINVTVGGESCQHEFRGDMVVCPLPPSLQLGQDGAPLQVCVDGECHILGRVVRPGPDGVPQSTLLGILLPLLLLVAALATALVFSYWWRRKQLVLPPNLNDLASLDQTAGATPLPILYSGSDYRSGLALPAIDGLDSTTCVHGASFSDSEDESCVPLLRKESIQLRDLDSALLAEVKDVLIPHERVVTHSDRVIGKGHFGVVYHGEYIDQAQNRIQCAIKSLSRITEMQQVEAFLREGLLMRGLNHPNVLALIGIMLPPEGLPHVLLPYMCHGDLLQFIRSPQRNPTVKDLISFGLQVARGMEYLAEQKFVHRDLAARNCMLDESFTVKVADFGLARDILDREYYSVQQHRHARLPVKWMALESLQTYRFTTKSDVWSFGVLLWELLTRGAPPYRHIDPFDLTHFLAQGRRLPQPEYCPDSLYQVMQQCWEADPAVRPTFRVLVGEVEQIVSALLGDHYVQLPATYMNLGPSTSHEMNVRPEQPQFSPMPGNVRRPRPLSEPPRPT

Compound | IC50 (RON kinase) [nM] | IC50 (GST-Aurora A) [nM]
COc1cccc(C(=O)Nc2ccc(Oc3ccnc4c3CNC(=O)N4)c(F)c2)c1 [Example 96, N-{3-fluoro-4-[(2-oxo-1,2,3,4-tetrahydropyrido[2,3-d]pyrimidin-5-yl)oxy]phenyl}-3-methoxybenzamide] | 10 to 100 | 
N#Cc1cccc(C(=O)Nc2ccc(Oc3ccnc4c3CNC(=O)N4)c(F)c2)c1 [Example 95, 3-cyano-N-{3-fluoro-4-[(2-oxo-1,2,3,4-tetrahydropyrido[2,3-d]pyrimidin-5-yl)oxy]phenyl}benzamide] | 10 to 100 | 
O=C(Nc1ccc(Oc2ccnc3c2C2OCCCN2C(=O)N3)c(F)c1)c1cccn(-c2ccc(F)cc2)c1=O (centres unmarked) [Example 76, N-{3-fluoro-4-[(6-oxo-3,4,7,11b-tetrahydro-2H,6H-pyrido[2′,3′:4,5]pyrimido[6,1-b][1,3]oxazin-11-yl)oxy]phenyl}-1-(4-fluorophenyl)-2-oxo-1,2-dihydropyridine-3-carboxamide] | 10 to 100 | 
CCN1Cc2c(Oc3ccc(NC(=O)Nc4ccc(Cl)nc4)cc3F)ccnc2NC1=O [Example 264, 1-(6-Chloro-pyridin-3-yl)-3-[4-(3-ethyl-2-oxo-1,2,3,4-tetrahydro-pyrido[2,3-d]pyrimidin-5-yloxy)-3-fluoro-phenyl]-urea] | 100 to 1000 | 
O=C1NCc2c(Oc3ccc(NC(=O)c4cccn(-c5ccc(F)cc5)c4=O)cc3F)ccnc2N1 [Example 59, N-{3-fluoro-4-[(2-oxo-1,2,3,4-tetrahydropyrido[2,3-d]pyrimidin-5-yl)oxy]phenyl}-1-(4-fluorophenyl)-2-oxo-1,2-dihydropyridine-3-carboxamide] | < 10 | 
CC(C)c1ccc(NC(=O)Nc2ccc(Oc3ccnc4c3CNC(=O)N4)c(F)c2)cc1 [Example 273, 1-[3-Fluoro-4-(2-oxo-1,2,3,4-tetrahydro-pyrido[2,3-d]pyrimidin-5-yloxy)-phenyl]-3-(4-isopropyl-phenyl)-urea] | < 10 | 
Cc1cccc(C(=O)Nc2ccc(Oc3ccnc4c3CNC(=O)N4)c(F)c2)c1 [Example 97, N-{3-fluoro-4-[(2-oxo-1,2,3,4-tetrahydropyrido[2,3-d]pyrimidin-5-yl)oxy]phenyl}-3-methylbenzamide] | 10 to 100 | 
O=C1NCc2c(Oc3ccc(NC(=O)c4cccn(-c5ccc(F)cc5)c4=O)nc3)ccnc2N1 [Example 283, 1-(4-Fluoro-phenyl)-2-oxo-1,2-dihydro-pyridine-3-carboxylic acid [5-(2-oxo-1,2,3,4-tetrahydro-pyrido[2,3-d]pyrimidin-5-yloxy)-pyridin-2-yl]-amide] | 100 to 1000 | 
O=C1NCc2c(Oc3ccc(NC(=O)c4cccc(C(F)(F)F)c4F)cc3F)ccnc2N1 [Example 94, 2-fluoro-N-{3-fluoro-4-[(2-oxo-1,2,3,4-tetrahydropyrido[2,3-d]pyrimidin-5-yl)oxy]phenyl}-3-(trifluoromethyl)benzamide] | 10 to 100 | 
CCN1Cc2c(Oc3ccc(NC(=O)Nc4ccc5c(c4)OCO5)cc3F)ccnc2NC1=O [Example 263, 1-Benzo[1,3]dioxol-5-yl-3-[4-(3-ethyl-2-oxo-1,2,3,4-tetrahydro-pyrido[2,3-d]pyrimidin-5-yloxy)-3-fluoro-phenyl]-urea] | 10 to 100 | 
O=C1NCc2c(Oc3ccc(NC(=O)c4ccc(Br)cc4)cc3F)ccnc2N1 [Example 99, 4-bromo-N-{3-fluoro-4-[(2-oxo-1,2,3,4-tetrahydropyrido[2,3-d]pyrimidin-5-yl)oxy]phenyl}benzamide] | < 10 | 
CCN1Cc2c(Oc3ccc(NC(=O)Nc4cc([N+](=O)[O-])ccc4F)cc3F)ccnc2NC1=O [Example 258, 1-[4-(3-Ethyl-2-oxo-1,2,3,4-tetrahydro-pyrido[2,3-d]pyrimidin-5-yloxy)-3-fluoro-phenyl]-3-(2-fluoro-5-nitro-phenyl)-urea] | 100 to 1000 | 
O=C(Nc1ccc(Oc2ccnc3c2CN(CC(F)(F)F)C(=O)N3)c(F)c1)c1cccn(-c2ccc(F)cc2)c1=O [Example 85, N-(3-fluoro-4-{[2-oxo-3-(2,2,2-trifluoroethyl)-1,2,3,4-tetrahydropyrido[2,3-d]pyrimidin-5-yl]oxy}phenyl)-1-(4-fluorophenyl)-2-oxo-1,2-dihydropyridine-3-carboxamide] | 10 to 100 | 
Cc1ccc(Nc2ccnc3c2CNC(=O)N3)cc1Br [Example 194, 5-(3-Bromo-4-methyl-phenylamino)-3,4-dihydro-1H-pyrido[2,3-d]pyrimidin-2-one] | 100 to 1000 | 
CCN1Cc2c(Oc3ccc(NC(=O)c4cccn(-c5ccc(F)cc5)c4=O)cc3F)ccnc2NC1=O [Example 84, N-{4-[(3-ethyl-2-oxo-1,2,3,4-tetrahydropyrido[2,3-d]pyrimidin-5-yl)oxy]-3-fluorophenyl}-1-(4-fluorophenyl)-2-oxo-1,2-dihydropyridine-3-carboxamide] | < 10 | 
O=C(Nc1ccc(Oc2ccnc3c2CNC(=O)N3)c(F)c1)Nc1ccc(C(F)(F)F)cc1Cl [Example 274, 1-(2-Chloro-4-trifluoromethyl-phenyl)-3-[3-fluoro-4-(2-oxo-1,2,3,4-tetrahydro-pyrido[2,3-d]pyrimidin-5-yloxy)-phenyl]-urea] | 100 to 1000 | 
CCN1Cc2c(Oc3ccc(NC(=O)Nc4cc(C)cs4)cc3F)ccnc2NC1=O [Example 267, 1-[4-(3-Ethyl-2-oxo-1,2,3,4-tetrahydro-pyrido[2,3-d]pyrimidin-5-yloxy)-3-fluoro-phenyl]-3-(4-methyl-thiophen-2-yl)-urea] | 10 to 100 | 
O=C(Nc1ccc(Nc2ccnc3c2CNC(=O)N3)cc1)Nc1ccc(F)cc1C(F)(F)F [Example 121, N-[4-fluoro-2-(trifluoromethyl)phenyl]-N′-{4-[(2-oxo-1,2,3,4-tetrahydropyrido[2,3-d]pyrimidin-5-yl)amino]phenyl}urea] |  | 10 to 100
O=C1NCc2c(Nc3ccc(NC(=O)c4cccc(F)c4)cc3F)ccnc2N1 [Example 117, 3-fluoro-N-{3-fluoro-4-[(2-oxo-1,2,3,4-tetrahydropyrido[2,3-d]pyrimidin-5-yl)amino]phenyl}benzamide] |  | 10 to 100
O=C(Nc1ccc(Nc2ccnc3c2CN(c2ccc(CN4CCCC4)cc2)C(=O)N3)cc1)c1ccc(F)cc1C(F)(F)F [Example 8, 4-fluoro-N-(4-(2-oxo-3-(4-(pyrrolidin-1-ylmethyl)phenyI)-1,2,3,4-tetrahydropyrido[2,3-d]pyrimidin-5-ylamino)phenyl)-2-(trifluoromethyl)benzamide] |  | 100 to 1000
O=C(Nc1ccc(Nc2ccnc3c2CN(c2ccccc2)C(=O)N3)cc1)c1ccc(F)cc1C(F)(F)F [Example 27, 4-fluoro-N-(4-(2-oxo-3-phenyl-1,2,3,4-tetrahydropyrido [2,3-d]pyrimidin-5-ylamino)phenyl)-2-(trifluoromethyl) benzamide] |  | 10 to 100
O=C(Nc1ccc(Nc2ccnc3c2CN(C2CC2)C(=O)N3)cc1)c1ccccc1 [Example 14, N-(4-(3-cyclopropyl-2-oxo-1,2,3,4-tetrahydropyrido[2,3-d]pyrimidin-5-ylamino)phenyl) benzamide] |  | 100 to 1000
COc1ccc(CN2Cc3c(Nc4ccc(NC(=O)c5ccccc5)cc4)ccnc3NC2=O)cc1 [Example 2] |  | 100 to 1000

— patent publication US8569295B2, “Bicyclic urea compounds” (Merck Patent GmbH, priority 2009, dated 2013)
